Patent US11084807B2, “Piperazine derivatives, pharmaceutical compositions and methods of use thereof” (Vidac Pharma Ltd., priority 2016, dated 2021)
Read-outs that look alike come from different tables or passages of the source.

What was measured:
Format in all cases: cell-based
[1] = test system: HCT116 Human colon carcinoma cell-line; assay: XTT cytotoxicity, HCT116 colon carcinoma cells; settings: HCT-116, 72 hr
Method: (§1) The piperazine-derivatives were prepared as a stock of 50 mM in 100% DMSO (dimethyl sulfoxide). Piperazine-derivatives were added at concentration ranging from 0.03-10 uM for 72 hours. Each experimental point was performed in triplicates. Vehicle (DMSO)-treated cells were used as control. Dilutions were performed in culture medium and DMSO so that the final concentration of DMSO in each well was 0.5%.
(§2) Optical density representing viable cells was determined using the XTT Cell Proliferation Kit assay (sodium 2,3,-bis(2-methoxy-4-nitro-5-sulfophenyl)-5-[(phenylamino)-carbonyl]-2H-tetrazolium inner salt, Biological industries, Beit-Haemek, Israel).
(§3) Percentage of Optical density is directly proportional to the number of living cells in culture. Cytotoxicity (%) was calculated in the following way: [(OD of drug-treated cells-OD of background)/(OD of control cells-OD of background)]×100.
(§4) New piperazine derivatives were tested for cytotoxicity in 4 cancer cell lines:
A) HCT116—Human colon carcinoma cell-line

[2] = test system: PC3 prostate cancer line; assay: Cytotoxicity, PC3 prostate cancer cells; settings: 25 mM glucose, 1500 cell/well, 10% FCS, 72 hours, read-out: IC50 (μM), prostate cancer cell line (Table 4)
[3] = test system: Panc-1 Human pancreatic carcinoma cell-line; assay: XTT cytotoxicity, Panc-1 pancreatic carcinoma cells; settings: Panc-1, XTT, 72 hr
Method: as §1, with “Piperazine-derivatives were added at concentration ranging from 0.03-10 uM for 72 hours.” left out
as §2, §3, §4
D) Panc-1—Human pancreatic carcinoma cell-line

[4] = test system: H358 Human lung carcinoma cell-line; assay: XTT cytotoxicity, H358 lung carcinoma cells
Method: as §1, §2, §3, §4
C) H358—Human lung carcinoma cell-line
New piperazine derivatives (compounds of Formula (IV)) were tested for cytotoxicity in the H358 human lung carcinoma cell line. Table 2 below provides IC50 values for the tested compounds.
New piperazine derivatives (compounds of Formula (V)) were tested for cytotoxicity in the H358 human lung carcinoma cell line. Table 3 below provide IC50 values for the tested compounds.

[5] = test system: Hela Human cervix adenocarcinoma cell-line; assay: XTT cytotoxicity, Hela cervix adenocarcinoma cells; settings: 72 hr
Method: as §1, §2, §3, §4
B) Hela—Human cervix adenocarcinoma cell-line

[6] = NCI-H358, H358, XTT, 72 hr (Table 1), read-out: IC50 (XTT, 72 hr) Lung H358
[7] = NCI-H358, H358 lung cancer line, 11.5 mM glucose, 5000 cell/well, 0.5% FCS, 72 hours, read-out: IC50 (μM), lung cancer cell line (Table 2)
[8] = NCI-H358, H358 lung cancer line, 11.5 mM glucose, 5000 cell/well, 0.5% FCS, 72 hours, read-out: IC50 (μM), lung cancer cell line (Table 3)

SMILES	IC50 [3]	IC50 [4, 7]	IC50 [5]	further results
O=C(N1CCN(c2ccccc2)CC1)N1c2ccccc2Oc2ccccc21 [Compound 1]	0.01 µM	0.025 µM	0.015 µM	IC50 [1]: 0.01 µM; IC50 [2]: 0.026 µM; IC50 [4, 6]: 0.05 µM
O=C(N1CCN(c2c(F)c(F)c(F)c(F)c2F)CC1)N1c2ccccc2Oc2ccccc21 [Compound 2]	> 30 µM	> 10 µM	1.9 µM	–
O=C(C1c2ccccc2Sc2ccccc21)N1CCN(c2ccccc2)CC1 [Compound 3]	0.31 µM	0.43 µM	0.5 µM	IC50 [1]: 0.64 µM; IC50 [4, 6]: 1.35 µM
O=C(N1CCN(c2c(F)cccc2F)CC1)N1c2ccccc2Oc2ccccc21 [Compound 5]	0.9 µM	0.265 µM	0.4 µM	IC50 [1]: 1.08 µM; IC50 [4, 6]: 0.84 µM
COc1cccc(N2CCN(C(=O)N3c4ccccc4Oc4ccccc43)CC2)c1 [Compound 11]	–	0.0047 µM	–	–
COc1ccccc1N1CCN(C(=O)N2c3ccccc3Oc3ccccc32)CC1 [Compound 12]	–	0.0066 µM	–	–
O=C(N1CCN(c2cc(F)cc(F)c2)CC1)N1c2ccccc2Oc2ccccc21 [Compound 13]	–	0.0067 µM	–	–
O=C(N1CCN(c2ccc(O)cc2)CC1)N1c2ccccc2Oc2ccccc21 [Compound 14]	–	0.051 µM	–	–
O=C(N1CCN(c2ccc(F)cc2)CC1)N1c2ccccc2Oc2ccccc21 [Compound 15]	–	0.24 µM	–	–
O=C(N1CCC(c2ccccc2)CC1)N1c2ccccc2Oc2ccccc21 [Compound 16]	–	1.37 µM	–	–
O=C(N1CCN(c2ccccc2)CC1)n1c2ccccc2c2ccccc21 [Compound 20]	–	–	–	IC50 [4, 8]: 0.027 µM
O=C(N1CCN(c2cc(F)cc(F)c2)CC1)n1c2ccccc2c2ccccc21 [Compound 23]	–	–	–	IC50 [2]: 0.08 µM; IC50 [4, 8]: 0.009 µM
